# Assay results reported in the supplement of paper PMC13380429.
# Experiments:
# Details in all cases: 72 h
# [1] = system: Calu-3; assay: cell viability relative to DMSO; higher = less toxic
# [2] = system: U2OS; assay: as above
# [3] = system: Vero E6; assay: as above
# [4] = system: HepG2; assay: as above
# [5] = system: Caco-2; assay: as above
# [6] = system: Calu-3; assay: drug sensitivity score (DSS) for viability; higher = more toxic; extreme values may be limits of the assay
# [7] = system: U2OS; assay: as above
# [8] = system: Vero E6; assay: as above
# [9] = system: HepG2; assay: as above
# [10] = system: Caco-2; assay: as above
# [11] = system: Calu-3; assay: relative viability EC50 (midpoint between 100% and the lowest measured viability); higher = less toxic
# [12] = system: U2OS; assay: as above
# [13] = system: Vero E6; assay: as above
# [14] = system: HepG2; assay: as above
# [15] = system: Caco-2; assay: as above
SMILES,cell viability ([1]; 1 nM),cell viability ([1]; 10 nM),cell viability ([1]; 100 nM),cell viability ([1]; 1000 nM),cell viability ([1]; 10000 nM),cell viability ([2]; 1 nM),cell viability ([2]; 10 nM),cell viability ([2]; 100 nM),cell viability ([2]; 1000 nM),cell viability ([2]; 10000 nM),cell viability ([3]; 1 nM),cell viability ([3]; 10 nM),cell viability ([3]; 100 nM),cell viability ([3]; 1000 nM),cell viability ([3]; 10000 nM),cell viability ([4]; 1 nM),cell viability ([4]; 10 nM),cell viability ([4]; 100 nM),cell viability ([4]; 1000 nM),cell viability ([4]; 10000 nM),cell viability ([5]; 1 nM),cell viability ([5]; 10 nM),cell viability ([5]; 100 nM),cell viability ([5]; 1000 nM),cell viability ([5]; 10000 nM),drug sensitivity score [6],drug sensitivity score [7],drug sensitivity score [8],drug sensitivity score [9],drug sensitivity score [10],relative viability EC50 [11],relative viability EC50 [12],relative viability EC50 [13],relative viability EC50 [14],relative viability EC50 [15]
CC/C(=C(/CC)c1ccc(OP(=O)(O)O)cc1)c1ccc(OP(=O)(O)O)cc1 [fosfestrol],87%,84.9%,92.5%,108%,117%,93.4%,105%,102%,102%,105%,94.2%,92.8%,92.4%,94.8%,108%,102%,97.6%,105%,97.1%,107%,84.6%,93.5%,97.2%,94.5%,104%,0,0,0,0,0,> 10 µM,> 10 µM,> 10 µM,> 10 µM,> 10 µM
O=c1c(-c2ccc(O)cc2)coc2cc(O)cc(O)c12 [genistein],96.4%,91.5%,98.1%,103%,82.9%,93.9%,98.8%,87.1%,87%,95.4%,102%,108%,108%,96.1%,97.2%,95.2%,89.9%,95.9%,102%,82.6%,102%,96.6%,105%,97%,90.3%,0.3,0,0,0.3,0,> 10 µM,> 10 µM,> 10 µM,> 10 µM,> 10 µM
O=C(O)CNC(=O)c1ccccc1 [hippuric-acid],99%,97.6%,94.3%,96.6%,99.9%,100%,99.3%,106%,95.2%,95.7%,96%,98.1%,97.1%,94.7%,100%,100%,98.3%,99.4%,102%,95.7%,96.9%,107%,89.2%,90%,92.8%,0,0,0,0,0.4,> 10 µM,> 10 µM,> 10 µM,> 10 µM,> 10 µM
Cc1nccn1CCC(C(N)=O)(c1ccccc1)c1ccccc1 [imidafenacin],106%,107%,106%,97.9%,102%,99%,94%,101%,96.4%,96.5%,97.9%,100%,95.5%,99.2%,97.2%,101%,97.3%,97.5%,95%,92.5%,99.4%,91.8%,92.8%,87.3%,93.4%,0,0,0,0,0.1,> 10 µM,> 10 µM,> 10 µM,> 10 µM,> 10 µM
CC(=O)N(C)c1cccc(-c2ccnc3c(C(=O)c4cccs4)cnn23)c1 [indiplon],99.4%,98.2%,91.6%,96.3%,101%,112%,99.4%,101%,96.5%,100%,105%,102%,97.1%,107%,91.3%,100%,103%,97.3%,96.7%,77.3%,100%,92.6%,93.5%,103%,92.1%,0,0,0,1.3,0,> 10 µM,> 10 µM,> 10 µM,> 10 µM,> 10 µM
N=C(N)NCc1cccc(I)c1 [iobenguane],110%,98.9%,107%,111%,98.6%,97.6%,99.8%,99.1%,95.2%,95.9%,100%,104%,111%,102%,87.7%,104%,91.6%,79.8%,79.3%,83%,114%,100%,118%,85.6%,81.4%,0,0,0,6.1,1.7,> 10 µM,> 10 µM,> 10 µM,> 10 µM,> 10 µM
CC(=O)N(CC(C)C(=O)O)c1c(I)cc(I)c(N)c1I (stereo not given) [iocetamic-acid],97.3%,98.6%,91.5%,90.3%,95.4%,98.2%,103%,104%,102%,101%,107%,103%,97.3%,105%,101%,93%,102%,99.8%,102%,96.1%,101%,99.3%,90.6%,95.5%,99.9%,0,0,0,0,0,> 10 µM,> 10 µM,> 10 µM,> 10 µM,> 10 µM
